Experimental data taken from patent publication US10519148B2, “Acrylic acid derivative, preparation method and use in medicine thereof” (Zhejiang Hisun Pharmaceutical Co., Ltd., priority 2015, dated 2019).

Tests used:
[1] = target: T1, recombinant human estrogen receptor ERα ligand binding domain (Homo sapiens, UniProt P03372); assay: LanthaScreen TR-FRET competition binding assay with estrogen receptor ERα ligand binding domain; settings: TR-FRET competition with Fluormone ES2, ERα-LBD (GST); read-out: IC50 (nM) ER Reporter
T1 construct: purchased Invitrogen PV4543
T1 sequence (P03372 311-547 limits assumed): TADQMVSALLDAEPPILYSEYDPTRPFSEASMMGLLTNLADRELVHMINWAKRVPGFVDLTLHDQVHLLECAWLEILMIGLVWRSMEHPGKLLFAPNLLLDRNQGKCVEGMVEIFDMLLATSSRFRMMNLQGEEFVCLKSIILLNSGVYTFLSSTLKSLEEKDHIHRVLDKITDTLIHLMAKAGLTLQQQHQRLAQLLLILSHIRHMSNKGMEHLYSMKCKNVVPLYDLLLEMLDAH
Description: The present invention utilizes the Lantha Screen™ Time-resolved Fluorescence Resonance Energy Transfer (TR-FRET) to assess the ability of the compounds to bind to the isolated ligand domain of estrogen receptor Era in competition assay. The fluorophore (Fluormone ES2, product code P2645) and the recombinant human estrogen receptor ERα ligand binding domain (product code PV4543) using in the TR-FRET were purchased from Invitrogen. The design principle of this assay is as follows: the estrogen receptor ERα-LBD (GST) and the fluorophore-containing ligand form a receptor/fluorophore complex, followed by the addition of terbium (Tb)-labeled anti-GST antibody (product code PV3551), the indirect labeling of the receptor is achieved by the linkage with the GST on the receptor, and the ability of competitive coordination between the test compound and the fluorescent ligand with the receptor is evaluated by detecting the attenuation of the TR-FRET effect between the chromophore (Tb-anti-GST antibody) on the fluorescent label ERα and the fluorescent ligand (Fluormone ES2). We used the following sample preparation and test methods for the test of the synthesized compounds. The instrument we used is Beckman Coulter BioPAPTR FRD microfluidic workstation.
(1) Acoustic dispense 120 nL of the test compound into a black low volume 384 well assay plates;
(2) Preparation of 1×ERα-LBD/Tb-anti-GST antibody complex in ES2 buffer and incubation therein for 20 minutes;
(3) The 1×ES2 was further added to the above ERα-LBD/Tb-anti-GST antibody complex solution before the test;
(4) 12 μL of the ERα-LBD/Tb-anti-GST antibody complex solution prepared in step 3 was added to the wells of the assay plate;
(5) The plates were shielded from light and incubated at room temperature for one hour; (6) At 337 nm excitation light, the emission light at 490 nm and 520 nm was detected by BMG Phera STAR.
The test compounds of a series of concentrations (10 mM, 0.1 mM, 1 μM and 10 nM) prepared on a microplate were transferred to the analytical plate using Labcyte Echo 550. 120 nL of DMSO solution for each test compound was added to each well of the assay plate and tested at 12 different concentrations (100, 29.17, 10.42, 2.083, 1, 0.292, 0.104, 0.02083, 0.01, 0.0029, 0.00104, 0.001 μM). The TR-FRET primitive fluorescence data was used to obtain the fitting curve software such as Origin or Genedata. Half maximal inhibitory concentration IC50 of each compound was used to characterize the competitive binding ability of the test compound with the estrogen receptor ERα. IC50 represents the concentration of the test compound that was calculated when the coordination of the tracer fluorophore (ES2) with the estrogen receptor was reduced by 50%, and the IC50 was determined as shown in Table 3.

ERα = target: T2, ERα (Homo sapiens, UniProt P03372); assay: ERα down-regulation immunofluorescence assay in MCF-7 cells; format: cell-based; settings: immunofluorescence of ERα level, read-out: IC50 (nM) ERα down-degradation
T2 construct: host or cells: MCF-7
T2 sequence (P03372 1-595): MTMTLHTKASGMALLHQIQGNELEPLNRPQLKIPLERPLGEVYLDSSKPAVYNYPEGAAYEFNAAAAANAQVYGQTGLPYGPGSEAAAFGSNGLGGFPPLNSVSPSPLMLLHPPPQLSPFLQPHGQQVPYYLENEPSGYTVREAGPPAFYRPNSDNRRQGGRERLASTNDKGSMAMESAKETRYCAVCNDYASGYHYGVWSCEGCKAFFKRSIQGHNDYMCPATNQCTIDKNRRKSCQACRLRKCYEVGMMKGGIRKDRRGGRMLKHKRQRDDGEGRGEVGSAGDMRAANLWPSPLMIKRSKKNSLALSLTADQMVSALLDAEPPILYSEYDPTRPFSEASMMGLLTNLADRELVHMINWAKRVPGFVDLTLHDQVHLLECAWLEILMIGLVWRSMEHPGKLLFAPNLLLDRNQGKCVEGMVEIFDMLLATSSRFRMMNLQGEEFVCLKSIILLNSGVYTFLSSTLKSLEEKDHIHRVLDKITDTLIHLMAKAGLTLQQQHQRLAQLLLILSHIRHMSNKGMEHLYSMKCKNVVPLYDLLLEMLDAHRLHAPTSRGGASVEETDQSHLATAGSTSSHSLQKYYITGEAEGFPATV
Method: The down-regulation of the preferred compounds of the present invention on the protein level of ERα is evaluated by immunofluorescence assay using human breast cancer cell line MCF-7. MCF-7 cells used in the experiment were revived directly from frozen cells (about 5×10^6). The MCF-7 frozen cell line (Sigma D5921) purchased from Sigma was stored in DMEM medium containing 2 mM […]. 5% (v/v) Charcoal/Dextran-treated bovine serum […] were added to the revived MCF-7 cells and the cell concentration was determined using Coulter Counter.
The cells used for the test were diluted to 3.75×10^4 cells/mL with culture medium and 40 μL/well of the above cell suspension was transferred to 384-well black transparent bottom plates and incubated overnight at 37° C., 5% CO2. 10 mM compound stock solutions were diluted to a series of test concentrations (10 mM, 0.1 mM, 1 μM, 0.01 μM etc.) and dispensed into cell plates. 20 μL of 11.1% (v/v) aqueous formaldehyde solution (phosphate buffered saline) was added to each of the different concentrations of the test compounds and MCF-7 cell culture solution (40 μL), and the final concentration of formaldehyde in the solution was 3.7% (v/v). Cells were fixed at room temperature for 20 minutes, washed twice with 250 μL of PBS/Proclin, and then 40 μL of PBS/Proclin was added and refrigerated at 4° C. The immunostaining of the protein was performed using the automated AutoElisa kit. The PBS/Proclin solution was aspirated from each plate well and then 40 μL of PBS containing 0.5% Tween 20 (v/v) was added for cell permeation. After one hour, the plate was washed with 250 μL of PBS/0.05% Tween 20/Proclin for three times, and 20 μL of ERα rabbit monoclonal antibody (Thermofisher) in PBS/Tween™ 20/3% (w/v) BSA solution (1:1000) was added. The plates were incubated overnight at 4° C., washed three times with 250 μL of PBS/Tween™ 20/Proclin, and then 20 μL of goat anti-rabbit IgG AlexaFluor 594 or goat anti-rabbit IgG AlexaFluor 488 antibody (containing Hoechst stain (1:5000) in PBS/Tween™ 20/3% (w/v) BSA solution was added, and the system was incubated at room temperature for one hour. After the plates were washed three times with 250 μL of PBS/0.05% (v/v) Tween™ 20/Proclin, 20 μL of PBS was added and the paltes were kept in dark place at 4° C. The level of estrogen receptor ERα in MCF-7 cells was calculated through Cellomics Arrayscan detection of fluorescence emission intensity at two emission wave bands at 594 nm (24-hour time point) and 488 nm (5-hour time point). The average fluorescence emission intensity of each cell is positively correlated with the ERα receptor level of the cell. The primitive fluorescence data was used to obtain the fitting curve by software such as Origin or Genedata. Half maximal inhibitory concentration IC50 was used to characterize the down-regulation of estrogen receptor ERα by the test compounds, which is the concentration of the test compound when the fluorescence emission intensity is reduced to 50% of the average maximum fluorescence intensity.

SMILES	IC50 [1]	DC50 (ERα)
C[C@@H]1Cc2c([nH]c3ccccc23)[C@@H](c2c(F)cc(/C=C/C(=O)O)cc2F)N1CC1CC1 [Example 2, (E)-3-(4-((1R,3R)-2-(cyclopropylmethyl)-3-methyl-2,3,4,9-tetrahydro-1H-pyrido[3,4-b]indol-1-yl)-3,5-difluorophenyl)acrylic acid]	0.1 to 10 nM	0.1 to 10 nM
C[C@@H]1Cc2c([nH]c3ccccc23)[C@@H](c2c(F)cc(/C=C/C(=O)O)cc2F)N1CC1CCCC1 [Example 3, (E)-3-(4-((1R,3R)-2-(cyclopentylmethyl)-3-methyl-2,3,4,9-tetrahydro-1H-pyrido[3,4-b]indol-1-yl)-3,5-difluorophenyl)acrylic acid]	10 to 250 nM	10 to 250 nM
C[C@@H]1Cc2c([nH]c3ccccc23)[C@@H](c2c(F)cc(/C=C/C(=O)O)cc2F)N1CC1(F)CCCCC1 [Example 6, (E)-3-(3,5-difluoro-4-((1R,3R)-2-((1-fluorocyclohexyl)methyl)-3-methyl-2,3,4,9-tetrahydro-1H-pyrido[3,4-b]indol-1-yl)phenyl)acrylic acid]	10 to 250 nM	10 to 250 nM
C[C@@H]1Cc2c([nH]c3ccccc23)[C@@H](c2c(F)cc(/C=C/C(=O)O)cc2F)N1CC1COC1 [Example 11, (E)-3-(3,5-difluoro-4-((1R,3R)-3-methyl-2-(oxetane-3-ylmethyl)-2,3,4,9-tetrahydro-1H-pyrido[3,4-b]indol-1-yl)phenyl)acrylic acid]	10 to 250 nM	10 to 250 nM
C[C@H]1Cc2c([nH]c3cccc(F)c23)[C@H](c2c(F)cc(/C=C/C(=O)O)cc2F)N1CC1(F)CC1 [Example 13, (E)-3-(3,5-difluoro-4-((1S,3S)-5-fluoro-2-((1-fluorocyclopropyl)methyl)-3-methyl-2,3,4,9-tetrahydro-1H-pyrido[3,4-b]indol-1-yl)phenyl)acrylic acid]	250 to 1000 nM	250 to 1000 nM
